Test results reported in US20260116868A1 (Arcus Biosciences, Inc., priority 2023, published 2026).

Key:
Cbl-b = target: T1, Cbl-b (Homo sapiens, UniProt Q13191); test: Cbl-b probe displacement HTRF binding assay; details: 0.4 nM Cbl-b, 150 nM BODIPY probe
T1 construct: biotin (biotinylated protein)
Outline: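 Compound competes with BODIPY probe (150 nM) for biotinylated Cbl-b (0.4 nM) in HEPES/NaCl/Triton/TCEP/BSA buffer; 60 min preincubation, 15 min with probe, room temperature. Tb-streptavidin HTRF read; % displacement vs DMSO and no-protein controls, IC50 from four-parameter fit.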

Jurkat cells = test: IL-2 secretion assay in Jurkat cells activated with CD3/CD28 T Cell Activator; type: cell-based; details: Homo sapiens; Jurkat cells, CD3/CD28 T Cell Activator, 24 h, IL-2 AlphaLISA; read-out: IL-2 Secretion (EC50)
Procedure: Certain compounds were also evaluated in an IL-2 secretion assay. On the day of the assay, a 16 point, 1:2 master serial dilution of each compound was prepared in Opti-MEM to span a final concentration range of 10 μM to 300 pM. Assays were set up in CORNING® tissue culture-treated 384-well microplates containing 60 nL of each dilution. Jurkat cells grown in RPMI-1640 supplemented with 10% FBS, 1% Glutamax, and 1% Pen/Strep were collected, resuspended in Opti-MEM. 50,000 cells/well and added to the compound plates. After a short spin (1200 rpm for 1 min), the plates were incubated at 37° C. for 1 hour. The cells were activated by adding 15 μL of IMMUNOCULT™ Human CD3/CD28 T Cell Activator (STEMCELL Technologies) diluted in Opti-MEM. After 24 h of incubation at 37° C., aliquots of culture supernatants were transferred to OptiPlate-384 (PerkinElmer) microplates. The level of IL-2 secretion in the supernatants was then determined using the IL-2 (human) AlphaLISA Detection Kit (PerkinElmer) according to the manufacturer's recommendations. The AlphaLISA signal was measured using an EnVision plate reader (PerkinElmer). EC50 values were determined by fitting the data to a standard 4-parameter logistic equation. See Table 7 for data for select compounds (IL-2 Secretion (EC50)).

T1 sequence (Q13191 whole entry, species assumed): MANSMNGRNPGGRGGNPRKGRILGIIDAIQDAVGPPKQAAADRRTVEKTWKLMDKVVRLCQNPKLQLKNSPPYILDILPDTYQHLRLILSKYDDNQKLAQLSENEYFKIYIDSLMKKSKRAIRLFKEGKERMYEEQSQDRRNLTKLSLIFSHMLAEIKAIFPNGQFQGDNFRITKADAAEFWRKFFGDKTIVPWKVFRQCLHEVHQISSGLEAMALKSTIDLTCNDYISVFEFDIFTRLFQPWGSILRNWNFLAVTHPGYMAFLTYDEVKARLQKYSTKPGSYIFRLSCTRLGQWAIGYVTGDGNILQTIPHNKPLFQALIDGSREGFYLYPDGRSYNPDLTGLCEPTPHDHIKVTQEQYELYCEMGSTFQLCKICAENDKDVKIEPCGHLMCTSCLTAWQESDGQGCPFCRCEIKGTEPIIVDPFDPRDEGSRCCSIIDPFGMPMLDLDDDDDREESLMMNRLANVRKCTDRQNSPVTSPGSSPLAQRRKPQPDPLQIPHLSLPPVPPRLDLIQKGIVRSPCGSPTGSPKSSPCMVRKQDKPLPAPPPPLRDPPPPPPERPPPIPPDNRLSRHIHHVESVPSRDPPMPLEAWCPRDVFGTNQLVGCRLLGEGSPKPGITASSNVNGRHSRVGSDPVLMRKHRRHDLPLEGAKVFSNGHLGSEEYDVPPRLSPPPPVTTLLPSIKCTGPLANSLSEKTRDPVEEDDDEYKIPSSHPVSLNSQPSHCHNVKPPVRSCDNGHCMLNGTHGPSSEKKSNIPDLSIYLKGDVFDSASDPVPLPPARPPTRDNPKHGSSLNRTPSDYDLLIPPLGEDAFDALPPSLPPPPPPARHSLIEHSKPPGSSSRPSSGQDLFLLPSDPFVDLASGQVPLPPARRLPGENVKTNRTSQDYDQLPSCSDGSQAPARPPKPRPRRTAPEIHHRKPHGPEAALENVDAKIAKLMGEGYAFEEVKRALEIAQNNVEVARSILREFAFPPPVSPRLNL

Structure (SMILES)	IC50 (Cbl-b)	EC50 (Jurkat cells)
Cn1cnnc1-c1cc(F)ccc1-c1cc(NC(=O)c2cc(-c3cc[nH]n3)cn(C3CC3)c2=O)nc(C2CC2)c1 [Example 27, N-{6-Cyclopropyl-4-[4-fluoro-2-(4-methyl-4H-1,2,4-triazol-3-yl)phenyl]-2-pyridyl}-1-cyclopropyl-2-oxo-5-(3-pyrazolyl)-1,2-dihydronicotinamide]	100 to 1000 nM	> 5000 nM
COCCNCc1cc(C(=O)Nc2cc(-c3ccc(C(=O)OC)cc3-c3ncoc3C)cc(C3CC3)n2)c(=O)n(C2CC2)c1 (single isomer, unassigned) [Example 51, methyl 4-(6-cyclopropyl-2-{1-cyclopropyl-5-[(2-methoxyethylamino)methyl]-2-oxo-1,2-dihydronicotinoylamino}-4-pyridyl)-3-(5-methyl-1,3-oxazol-4-yl)benzoate]	100 to 1000 nM	1000 to 5000 nM
COCCNCc1cc(C(=O)Nc2cc(-c3ccc(C#N)cc3-c3nc(C(F)(F)F)cn3C)cc(C3CC3)n2)c(=O)n(C2CC2)c1 [Example 46, N-(4-{4-cyano-2-[1-methyl-4-(trifluoromethyl)-2-imidazolyl]phenyl}-6-cyclopropyl-2-pyridyl)-1-cyclopropyl-5-[(2-methoxyethylamino)methyl]-2-oxo-1,2-dihydronicotinamide]	100 to 1000 nM	1000 to 5000 nM
C[C@H]1CCCN(Cc2cc(C(=O)Nc3cc(-c4ccc(C#N)cc4-c4nc(C(F)(F)F)cn4C)cc(C4CC4)n3)c(=O)n(C3CC3)c2)C1 [Example 47, N-(4-{4-cyano-2-[1-methyl-4-(trifluoromethyl)-2-imidazolyl]phenyl}-6-cyclopropyl-2-pyridyl)-5-{[(S)-3-methyl-1-piperidyl]methyl}-1-cyclopropyl-2-oxo-1,2-dihydronicotinamide]	100 to 1000 nM	1000 to 5000 nM
CC(C)n1cc(CN2CCC[C@H](C)C2)cc(C(=O)Nc2cc(-c3ccc(F)cc3-c3nncn3C)cc(C3CC3)n2)c1=O [Example 57, N-[6-cyclopropyl-4-[4-fluoro-2-(4-methyl-1,2,4-triazol-3-yl)phenyl]pyridin-2-yl]-5-[[(3S)-3-methylpiperidin-1-yl]methyl]-2-oxo-1-propan-2-ylpyridine-3-carboxamide]	< 100 nM	< 100 nM
CO[C@H]1CCCN(Cc2cc(C(=O)Nc3cc(-c4ccc(F)cc4-c4nncn4C)cc(C4CC4)n3)c(=O)n(C3CC3)c2)C1 [Example 25, N-{6-cyclopropyl-4-[4-fluoro-2-(4-methyl-4H-1,2,4-triazol-3-yl)phenyl]-2-pyridyl}-5-{[(S)-3-methoxy-1-piperidyl]methyl}-1-cyclopropyl-2-oxo-1,2-dihydronicotinamide]	< 100 nM	100 to 1000 nM
CC(C)Cn1cc(CN2CCC[C@H](C)C2)cc(C(=O)Nc2cc(-c3ccc(F)cc3-c3nncn3C)cc(C3CC3)n2)c1=O [Example 61, N-[6-cyclopropyl-4-[4-fluoro-2-(4-methyl-1,2,4-triazol-3-yl)phenyl]pyridin-2-yl]-5-[[(3S)-3-methylpiperidin-1-yl]methyl]-1-(2-methylpropyl)-2-oxopyridine-3-carboxamide]	< 100 nM	< 100 nM
COCCNCc1cc(C(=O)Nc2cc(-c3ccc(C#N)cc3-c3ncoc3C)cc(C3CC3)n2)c(=O)n(C2CC2)c1 (single isomer, unassigned) [Example 50, N-{4-[4-cyano-2-(5-methyl-1,3-oxazol-4-yl)phenyl]-6-cyclopropyl-2-pyridyl}-1-cyclopropyl-5-[(2-methoxyethylamino)methyl]-2-oxo-1,2-dihydronicotinamide]	< 100 nM	< 100 nM
[2H]C([2H])([2H])n1ccnc1-c1cc(C#N)ccc1-c1cc(NC(=O)c2cc(CNCCOC)cn(C3CC3)c2=O)nc(C2CC2)c1 [Example 45, N-[4-(4-cyano-2-{1-[(^2H3)methyl]-2-imidazolyl}phenyl)-6-cyclopropyl-2-pyridyl]-1-cyclopropyl-5-[(2-methoxyethylamino)methyl]-2-oxo-1,2-dihydronicotinamide]	< 100 nM	< 100 nM

The next lines start with the values.

IC50 (Cbl-b)	EC50 (Jurkat cells)	Structure (SMILES)
< 100 nM	< 100 nM	CO[C@@H](C)CNCc1cc(C(=O)Nc2cc(-c3ccc(Cl)cc3C(=O)N3CC(F)(F)C3)cc(C3CC3)n2)c(=O)n(C)c1 [Example 105, N-[4-[4-chloro-2-(3,3-difluoroazetidine-1-carbonyl)phenyl]-6-cyclopropylpyridin-2-yl]-5-[[[(2S)-2-methoxypropyl]amino]methyl]-1-methyl-2-oxopyridine-3-carboxamide]
< 100 nM	< 100 nM	N#Cc1ccc(-c2cc(NC(=O)c3cc(CNCCOC(F)(F)F)cn(C4CC4)c3=O)nc(C3CC3)c2)c(-c2nncn2C(F)F)c1 [Example 9, N-(4-{4-cyano-2-[4-(difluoromethyl)-4H-1,2,4-triazol-3-yl]phenyl}-6-cyclopropyl-2-pyridyl)-1-cyclopropyl-2-oxo-5-[(2-trifluoromethoxyethylamino)methyl]-1,2-dihydronicotinamide]
< 100 nM	100 to 1000 nM	Cn1ccnc1-c1cc(C#N)ccc1-c1cc(NC(=O)c2cc(CN3CCC4(CC4)C3)cn(C3CC3)c2=O)nc(C2CC2)c1 [Example 41, N-{4-[4-cyano-2-(1-methyl-2-imidazolyl)phenyl]-6-cyclopropyl-2-pyridyl}-5-{(5-aza-5-spiro[2.4]heptyl)methyl}-1-cyclopropyl-2-oxo-1,2-dihydronicotinamide]
< 100 nM	100 to 1000 nM	COC1CN(Cc2cc(C(=O)Nc3cc(-c4ccc(F)cc4-c4nncn4C)cc(C4CC4)n3)c(=O)n(C3CC3)c2)C1 [Example 26, N-{6-cyclopropyl-4-[4-fluoro-2-(4-methyl-4H-1,2,4-triazol-3-yl)phenyl]-2-pyridyl}-1-cyclopropyl-5-[(3-methoxy-1-azetidinyl)methyl]-2-oxo-1,2-dihydronicotinamide]
< 100 nM	< 100 nM	Cn1cc(C#N)nc1-c1cc(C#N)ccc1-c1cc(NC(=O)c2cc(CNC3(C)CCC3)cn(C3CC3)c2=O)nc(C2CC2)c1 [Example 49, N-{4-[4-cyano-2-(4-cyano-1-methyl-2-imidazolyl)phenyl]-6-cyclopropyl-2-pyridyl}-1-cyclopropyl-5-[(1-methylcyclobutylamino)methyl]-2-oxo-1,2-dihydronicotinamide]
< 100 nM	< 100 nM	O=C(Nc1cc(-c2ccc(OC(F)F)cc2C(=O)N2CC(F)(F)C2)cc(C2CC2)n1)c1cc(CNCC2CCCO2)cn(C2CC2)c1=O (stereo in doubt) [Example 84, N-(6-cyclopropyl-4-{2-[(3,3-difluoro-1-azetidinyl)carbonyl]-4-difluoromethoxyphenyl}-2-pyridyl)-5-[({[(R)-tetrahydro-2-furyl]methyl}amino)methyl]-1-cyclopropyl-2-oxo-1,2-dihydronicotinamide]
< 100 nM	100 to 1000 nM	N#Cc1ccc(-c2cc(NC(=O)c3cc(CN4C[C@H]5CC[C@@H]4C5)cn(C4CC4)c3=O)nc(C3CC3)c2)c(-c2nncn2C(F)F)c1 [Example 11, N-(4-{4-cyano-2-[4-(difluoromethyl)-4H-1,2,4-triazol-3-yl]phenyl}-6-cyclopropyl-2-pyridyl)-5-({(1R,4S)-2-azabicyclo[2.2.1]hept-2-yl}methyl)-1-cyclopropyl-2-oxo-1,2-dihydronicotinamide]
< 100 nM	< 100 nM	COCCNCc1cc(C(=O)Nc2cc(-c3ccc(C#N)cc3-c3nccn3C)cc(C3CC3)n2)c(=O)n(C2CC2)c1 [Example 42, N-{4-[4-cyano-2-(1-methyl-2-imidazolyl)phenyl]-6-cyclopropyl-2-pyridyl}-1-cyclopropyl-5-[(2-methoxyethylamino)methyl]-2-oxo-1,2-dihydronicotinamide]
< 100 nM	< 100 nM	Cn1ccnc1-c1cc(C#N)ccc1-c1cc(NC(=O)c2cc(CNC3(C)CCC3)cn(C3CC3)c2=O)nc(C2CC2)c1 [Example 39, N-{4-[4-cyano-2-(1-methyl-2-imidazolyl)phenyl]-6-cyclopropyl-2-pyridyl}-1-cyclopropyl-5-[(1-methylcyclobutylamino)methyl]-2-oxo-1,2-dihydronicotinamide]
< 100 nM	< 100 nM	COCCNCc1cc(C(=O)Nc2cc(-c3ccc(C#N)cc3-c3nc(C#N)cn3C)cc(C3CC3)n2)c(=O)n(C2CC2)c1 [Example 48, N-{4-[4-cyano-2-(4-cyano-1-methyl-2-imidazolyl)phenyl]-6-cyclopropyl-2-pyridyl}-1-cyclopropyl-5-[(2-methoxyethylamino)methyl]-2-oxo-1,2-dihydronicotinamide]
< 100 nM	< 100 nM	COCCNCc1cc(C(=O)Nc2cc(-c3ccc(C#N)cc3-c3nncn3C)cc(C3CC3)n2)c(=O)n(C2CC2)c1 [Example 3, N-[4-[4-cyano-2-(4-methyl-1,2,4-triazol-3-yl)phenyl]-6-cyclopropylpyridin-2-yl]-1-cyclopropyl-5-[(2-methoxyethylamino)methyl]-2-oxopyridine-3-carboxamide]
